Assay results: patent publication US10202377B2, “3-(1H-benzo[D]imidazol-2-yl)-1H-pyrazolo[3,4-C]pyridine and therapeutic uses thereof” (Samumed, LLC, priority 2014, dated 2019)
pEC50, pIC50: −log10 of the molar value.

system: Wnt activity (Sp5-Luc reporter, SW480 colon carcinoma cells); assay: Sp5-Luc Wnt reporter gene screening assay in SW480 colon carcinoma cells; conditions: Homo sapiens
Experimental: The screening assay for Wnt activity is described as follows.
SW480 colon carcinoma cells were transduced with a lentiviral vector expressing luciferase with a human Sp5 promoter consisting of a sequence of eight TCF/LEF binding sites. SW480 cells stably expressing the Sp5-Luc reporter gene and a hygromycin resistance gene were selected by treatment with 150 μg/ml of hygromycin for 7 days. These stably transduced SW480 cells were expanded in cell culture and used for all further screening activities. For Sp5-Luc reporter gene assays, the cells were plated at 10,000 cells/well in 96-well plates with growth medium containing 10% fetal calf serum and incubated overnight at 37° C. and 5% CO2. […] Compound transfer from serially diluted source plates to assay plates containing the cells was accomplished using a pintool (Multimek 96, Beckman equipped with V&P Scientific FP1S50H pins) based liquid handling protocol. This protocol used a slotted pin to transfer 50 nl of compound from a source plate well to an assay plate well containing 50 μl of cells in growth medium. […] Control wells received 50 nl of DMSO treatment for normalization and calculating IC50 values. The treated cells were incubated at 37° C. and 5% CO2 for an additional forty-two hours. Following incubation, the growth medium was removed and 50 μl of BrightGlo luminescence reagent (Promega) was added to each well of the 96-well assay plates. The plates were placed on an orbital shaker for 5 min and then luminescence was quantified on the Victor3 (Perkin Elmer) plate reader.

Compared with `O=C(CC1CCCCC1)Nc1cncc(-c2cc3c(-c4nc5c(-c6cccc(F)c6)cccc5[nH]4)n[nH]c3cn2)c1` [Compound 951, 2-Cyclohexyl-N-(5-(3-(4-(3-fluorophenyl)-1H-benzo[d]imidazol-2-yl)-1H-pyrazolo[3,4-c]pyridin-5-yl)pyridin-3-yl)acetamide], `O=C(CC1CCNCC1)Nc1cncc(-c2cc3c(-c4nc5c(-c6cccc(F)c6)cccc5[nH]4)n[nH]c3cn2)c1` [Compound 945, N-(5-(3-(4-(3-Fluorophenyl)-1H-benzo[d]imidazol-2-yl)-1H-pyrazolo[3,4-c]pyridin-5-yl)pyridin-3-yl)-2-(piperidin-4-yl)acetamide] is lower in pIC50: 6.94 for the first, under 5.00 for the second.

Compared with `c1ccc(CNCc2cncc(-c3cc4c(-c5nc6c(-c7ccsc7)cccc6[nH]5)n[nH]c4cn3)c2)cc1` [Compound 283, N-Benzyl-1-(5-(3-(4-(thiophen-3-yl)-1H-benzo[d]imidazol-2-yl)-1H-pyrazolo[3,4-c]pyridin-5-yl)pyridin-3-yl)methanamine], `Fc1cccc(-c2cccc3[nH]c(-c4n[nH]c5cnc(-c6cncc(OCc7ccccc7)c6)cc45)nc23)c1` [Compound 950, 5-(5-(Benzyloxy)pyridin-3-yl)-3-(4-(3-fluorophenyl)-1H-benzo[d]imidazol-2-yl)-1H-pyrazolo[3,4-c]pyridine] is 0.73 log units lower in pIC50: 7.51 for the first, 6.78 for the second. The first is the more potent here.

Going from `Fc1ccc(-c2cccc3[nH]c(-c4n[nH]c5cnc(-c6cncc(CN7CCCC7)c6)cc45)nc23)s1` [Compound 352, 3-(4-(5-Fluorothiophen-2-yl)-1H-benzo[d]imidazol-2-yl)-5-(5-(pyrrolidin-1-ylmethyl)pyridin-3-yl)-1H-pyrazolo[3,4-c]pyridine] to `Fc1cccc(-c2cccc3[nH]c(-c4n[nH]c5cnc(-c6cncc(OCCN7CCCC7)c6)cc45)nc23)c1` [Compound 946, 3-(4-(3-Fluorophenyl)-1H-benzo[d]imidazol-2-yl)-5-(5-(2-(pyrrolidin-1-yl)ethoxy)pyridin-3-yl)-1H-pyrazolo[3,4-c]pyridine], the pIC50 falls from 7.52 to 6.24 (1.28 log units). The first is the more potent here.

First: CC(=O)c1ccc(-c2cccc3[nH]c(-c4n[nH]c5cnc(-c6cncc(NC(=O)CC(C)(C)C)c6)cc45)nc23)s1 [Compound 406, N-(5-(3-(4-(5-Acetylthiophen-2-yl)-1H-benzo[d]imidazol-2-yl)-1H-pyrazolo[3,4-c]pyridin-5-yl)pyridin-3-yl)-3,3-dimethylbutanamide]
Second: CC(C)CC(=O)Nc1cncc(-c2cc3c(-c4nc5c(-c6ccc(F)s6)cccc5[nH]4)n[nH]c3cn2)c1 [Compound 340, N-(5-(3-(4-(5-Fluorothiophen-2-yl)-1H-benzo[d]imidazol-2-yl)-1H-pyrazolo[3,4-c]pyridin-5-yl)pyridin-3-yl)-3-methylbutanamide]
The pIC50 of the first is 1.15 log units lower: 6.61 for the first, 7.76 for the second.

Compared with `CC(C)CC(=O)Nc1cncc(-c2cc3c(-c4nc5c(-c6cc(F)cc(OCCN(C)C)c6)cccc5[nH]4)n[nH]c3cn2)c1` [Compound 1262, N-(5-(3-(4-(3-(2-(Dimethylamino)ethoxy)-5-fluorophenyl)-1H-benzo[d]imidazol-2-yl)-1H-pyrazolo[3,4-c]pyridin-5-yl)pyridin-3-yl)-3-methylbutanamide], `CC(C)CC(=O)Nc1cncc(-c2cc3c(-c4nc5c(-c6cc(F)cc(OCCN7CCCC7)c6)cccc5[nH]4)n[nH]c3cn2)c1` [Compound 1306, N-(5-(3-(4-(3-Fluoro-5-(2-(pyrrolidin-1-yl)ethoxy)phenyl)-1H-benzo[d]imidazol-2-yl)-1H-pyrazolo[3,4-c]pyridin-5-yl)pyridin-3-yl)-3-methylbutanamide] is 0.27 log units lower in pIC50: 6.13 for the first, 5.86 for the second. The first is the more potent here.

Compared with `CN(C)c1cncc(-c2cc3c(-c4nc5c(-c6cccs6)cccc5[nH]4)n[nH]c3cn2)c1` [Compound 319, N,N-Dimethyl-5-(3-(4-(thiophen-2-yl)-1H-benzo[d]imidazol-2-yl)-1H-pyrazolo[3,4-c]pyridin-5-yl)pyridin-3-amine], `CN(C)CC(=O)Nc1cncc(-c2cc3c(-c4nc5c(-c6cccc(F)c6)cccc5[nH]4)n[nH]c3cn2)c1` [Compound 1437, 2-(Dimethylamino)-N-(5-(3-(4-(3-fluorophenyl)-1H-benzo[d]imidazol-2-yl)-1H-pyrazolo[3,4-c]pyridin-5-yl)pyridin-3-yl)acetamide] is 0.30 log units lower in pIC50: 7.11 for the first, 6.81 for the second.

Compared with `CCCCC(=O)Nc1cncc(-c2cc3c(-c4nc5c(-c6ccoc6)cccc5[nH]4)n[nH]c3cn2)c1` [Compound 304, N-(5-(3-(4-(Furan-3-yl)-1H-benzo[d]imidazol-2-yl)-1H-pyrazolo[3,4-c]pyridin-5-yl)pyridin-3-yl)pentanamide], `CCCC(=O)Nc1cncc(-c2cc3c(-c4nc5c(-c6ccncc6)cccc5[nH]4)n[nH]c3cn2)c1` [Compound 121, N-(5-(3-(4-(Pyridin-4-yl)-1H-benzo[d]imidazol-2-yl)-1H-pyrazolo[3,4-c]pyridin-5-yl)pyridin-3-yl)butyramide] is lower in pIC50: 6.84 for the first, under 5.00 for the second.

Going from `CC(C)C(=O)Nc1cncc(-c2cc3c(-c4nc5c(N6CCN(C)CC6)cccc5[nH]4)n[nH]c3cn2)c1` [Compound 217, N-(5-(3-(4-(4-Methylpiperazin-1-yl)-1H-benzo[d]imidazol-2-yl)-1H-pyrazolo[3,4-c]pyridin-5-yl)pyridin-3-yl)isobutyramide] to `O=C(Nc1cncc(-c2cc3c(-c4nc5c(-c6ccsc6)cccc5[nH]4)n[nH]c3cn2)c1)C1CCC1` [Compound 280, N-(5-(3-(4-(Thiophen-3-yl)-1H-benzo[d]imidazol-2-yl)-1H-pyrazolo[3,4-c]pyridin-5-yl)pyridin-3-yl)cyclobutanecarboxamide], the pIC50 rises from 6.45 to 8.21 (1.76 log units).

First: NC1CN(c2cncc(-c3cc4c(-c5nc6c(-c7cccc(F)c7)cccc6[nH]5)n[nH]c4cn3)n2)C1 [Compound 942, 1-(6-(3-(4-(3-Fluorophenyl)-1H-benzo[d]imidazol-2-yl)-1H-pyrazolo[3,4-c]pyridin-5-yl)pyrazin-2-yl)azetidin-3-amine]
Second: Cn1cc(-c2cc3c(-c4nc5c(-c6cccc(F)c6)cccc5[nH]4)n[nH]c3cn2)cn1 [Compound 940, 3-(4-(3-Fluorophenyl)-1H-benzo[d]imidazol-2-yl)-5-(1-methyl-1H-pyrazol-4-yl)-1H-pyrazolo[3,4-c]pyridine]
The pIC50 of the first is 0.24 log units lower: 7.10 for the first, 7.34 for the second. The second is the more potent here.

Compared with `Fc1cccc(-c2cccc3[nH]c(-c4n[nH]c5cnc(C6=CCNCC6)cc45)nc23)c1` [Compound 938, 3-(4-(3-Fluorophenyl)-1H-benzo[d]imidazol-2-yl)-5-(1,2,3,6-tetrahydropyridin-4-yl)-1H-pyrazolo[3,4-c]pyridine], `Cc1ncc(-c2cc3c(-c4nc5c(-c6cccc(F)c6)cccc5[nH]4)n[nH]c3cn2)n1C` [Compound 941, 5-(1,2-Dimethyl-1H-imidazol-5-yl)-3-(4-(3-fluorophenyl)-1H-benzo[d]imidazol-2-yl)-1H-pyrazolo[3,4-c]pyridine] is 0.36 log units lower in pIC50: 6.84 for the first, 6.48 for the second. The first is the more potent here.

Compared with `Fc1cccc(-c2cccc3[nH]c(-c4n[nH]c5cnc(-c6cncc(OC7CCCCC7)c6)cc45)nc23)c1` [Compound 943, 5-(5-(Cyclohexyloxy)pyridin-3-yl)-3-(4-(3-fluorophenyl)-1H-benzo[d]imidazol-2-yl)-1H-pyrazolo[3,4-c]pyridine], `Fc1cccc(-c2cccc3[nH]c(-c4n[nH]c5cnc(-c6cncc(OC7CCNCC7)c6)cc45)nc23)c1` [Compound 944, 3-(4-(3-Fluorophenyl)-1H-benzo[d]imidazol-2-yl)-5-(5-(piperidin-4-yloxy)pyridin-3-yl)-1H-pyrazolo[3,4-c]pyridine] is 0.33 log units lower in pIC50: 6.25 for the first, 5.92 for the second.

Going from `O=C(Nc1cncc(-c2cc3c(-c4nc5ccccc5[nH]4)n[nH]c3cn2)c1)C1CCCCC1` [Compound 256, N-(5-(3-(1H-Benzo[d]imidazol-2-yl)-1H-pyrazolo[3,4-c]pyridin-5-yl)pyridin-3-yl)cyclohexanecarboxamide] to `O=C(Nc1cncc(-c2cc3c(-c4nc5c(-c6ccoc6)cccc5[nH]4)n[nH]c3cn2)c1)C1CCC1` [Compound 306, N-(5-(3-(4-(Furan-3-yl)-1H-benzo[d]imidazol-2-yl)-1H-pyrazolo[3,4-c]pyridin-5-yl)pyridin-3-yl)cyclobutanecarboxamide], the pIC50 rises from 7.02 to 7.77 (0.75 log units). The second is the more potent here.

Molecule `CS(=O)(=O)NCc1cc(F)cc(-c2cccc3[nH]c(-c4n[nH]c5cnc(-c6cncc(NC(=O)C7CCC7)c6)cc45)nc23)c1` [Compound 436, N-(5-(3-(4-(3-Fluoro-5-(methylsulfonamidomethyl)phenyl)-1H-benzo[d]imidazol-2-yl)-1H-pyrazolo[3,4-c]pyridin-5-yl)pyridin-3-yl) cyclobutanecarboxamide] has a pIC50 of 7.59.

system: primary human fibroblasts derived from IPF patients (LL29 cells); assay: Inhibition of fibrosis (αSMA staining) in TGF-β1-treated primary human fibroblasts from IPF patients; format: cell-based; conditions: Fibroblast, 96 h, TGF-β1 20 ng/mL, 4 days
Experimental: The above synthesized compounds were screened using primary human fibroblasts (derived from IPF patients) treated with TGF-β1 to determine their ability to inhibit the fibrotic process.
Compound Screening: Each compound was dissolved in DMSO as a 10 mM stock and used to prepare compound source plates. […] LL29 cells were plated at 1,500 cells/well in 80 μl/well F12 medium supplemented with 1% Fetal Bovine Serum. One hour after addition of the cells, TGF-β1 (Peprotech; 20 ng/mL) was added to the plates to induce fibrosis (ref. 1 and 2 above). Wells treated with TGF-β1 and containing DMSO were used as controls. Cells were incubated at 37° C. and 5% CO2 for 4 days. Following incubation for 4 days, SYTOX green nucleic acid stain (Life Technologies [Thermo Fisher Scientific]) was added to the wells at a final concentration of 1 uM and incubated at room temperature for 30 min. Cells were then fixed using 4% formaldehyde (Electron Microscopy Sciences), washed 3 times with PBS followed by blocking and permeabilization using 3% Bovine Serum Albumin (BSA; Sigma) and 0.3% Triton X-100 (Sigma) in PBS. Cells were then stained with antibody specific to α-smooth muscle actin (aSMA; Abcam) (ref. 1 and 2 above) in 3% Bovine Serum Albumin (BSA; Sigma) and 0.3% Triton X-100 (Sigma) in PBS, and incubated overnight at 4° C. […] Dead or apoptotic cells were excluded from analysis based on positive SYTOX green staining. % of total cells positive for αSMA were counted in each well and normalized to the average of 11 wells treated with TGF-β1 on the same plate using Dotmatics' Studies Software. […] The EC50 values are reported.

First: c1ccc(CNCc2cncc(-c3cc4c(-c5nc6c(-c7ccsc7)cccc6[nH]5)n[nH]c4cn3)c2)cc1 [Compound 283, N-Benzyl-1-(5-(3-(4-(thiophen-3-yl)-1H-benzo[d]imidazol-2-yl)-1H-pyrazolo[3,4-c]pyridin-5-yl)pyridin-3-yl)methanamine]
Second: Fc1ccc(-c2cccc3[nH]c(-c4n[nH]c5cnc(-c6cncc(CN7CCCC7)c6)cc45)nc23)s1 [Compound 352, 3-(4-(5-Fluorothiophen-2-yl)-1H-benzo[d]imidazol-2-yl)-5-(5-(pyrrolidin-1-ylmethyl)pyridin-3-yl)-1H-pyrazolo[3,4-c]pyridine]
The pEC50 of the first is 3.05 log units higher: 8.05 for the first, 5.00 for the second.

`CN1CCN(c2cccc3[nH]c(-c4n[nH]c5cnc(-c6cncc(CN7CCCCC7)c6)cc45)nc23)CC1` [Compound 223, 3-(4-(4-Methylpiperazin-1-yl)-1H-benzo[d]imidazol-2-yl)-5-(5-(piperidin-1-ylmethyl)pyridin-3-yl)-1H-pyrazolo[3,4-c]pyridine] was tested, and the pEC50 was 5.58.
